Test results taken from patent publication US5888781A, “Method for increasing the hydrolytic activity of starch hyrdolases” (University of Maryland Baltimore County, priority 1997, dated 1999).

Experiments:
GA from A. awamori [1] = target: T1, GA from A. awamori (Aspergillus awamori, UniProt P69327); experiment: GA activity assay: maltose hydrolysis in the presence of cosolvents; type: biochemical; conditions: maltose hydrolysis by GA at 45° C.; for Corresponding cosolvent concentration at maximum percent increase in kcat: 0.05M sodium acetate buffer pH 4.5, 20 mM maltose; for kcat: at cosolvent concentration of maximum increase
T1 construct: made in house; host or cells: Saccharomyces cerevisiae
T1 sequence (P69327 25-640): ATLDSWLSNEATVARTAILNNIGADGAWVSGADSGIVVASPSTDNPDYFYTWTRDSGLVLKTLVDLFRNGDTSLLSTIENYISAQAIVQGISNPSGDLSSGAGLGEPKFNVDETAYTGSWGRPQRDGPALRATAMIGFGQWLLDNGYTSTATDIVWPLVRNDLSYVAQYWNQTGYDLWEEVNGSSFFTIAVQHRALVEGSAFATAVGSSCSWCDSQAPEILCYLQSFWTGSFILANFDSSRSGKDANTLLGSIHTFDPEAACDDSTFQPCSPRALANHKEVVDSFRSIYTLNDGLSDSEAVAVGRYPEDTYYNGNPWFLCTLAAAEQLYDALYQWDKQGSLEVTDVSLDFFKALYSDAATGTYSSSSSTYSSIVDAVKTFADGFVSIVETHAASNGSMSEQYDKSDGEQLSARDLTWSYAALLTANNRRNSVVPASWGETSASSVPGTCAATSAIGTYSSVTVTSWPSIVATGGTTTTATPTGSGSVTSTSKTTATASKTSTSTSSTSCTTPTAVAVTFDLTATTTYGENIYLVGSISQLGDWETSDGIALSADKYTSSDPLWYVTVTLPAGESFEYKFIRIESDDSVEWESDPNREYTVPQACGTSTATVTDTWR
Protocol: GA was produced in Saccharomyces cerevisiae and obtained, as described by Natarajan et al, Biochem., 35:3050-3058 (1996).
Kinetic assays were performed either at 45° C. or at 60° C., in 0.05M sodium acetate buffer (pH 4.5), using a substrate, i.e., maltose, concentration of 20 mM. The substrate concentration was sufficiently above the Km value so that the measured rate was directly proportional to kcat. The enzyme concentrations used in the reaction mixtures were 35 μg/ml and 3.5 μg/ml for the 45° C. and 60° C. experiments, respectively.
(§1) The cosolvent solutions were prepared from a concentrated cosolvent mixture by dilution to the final concentrations ranging from 0-90% (w/v), into the appropriate reaction buffer solution. The buffer solutions were titrated for pH prior to addition of cosolvent. All of the solutions were equilibrated at 45° C. (or 60° C.) in a water bath, and the reaction was started by the addition of a 25 μl aliquot of enzyme. Reaction aliquots were removed at various times, and the reaction was stopped by the addition of 2.5M Trizma base (pH 7.0). All of the reactions were performed in duplicate. The rates were determined by measuring the concentration of the released glucose by the glucose oxidase method, using the Glucose Oxidase Kit (Sigma), as modified for microtiter plate assays, at OD450 nm (Fox et al, Anal. Biochem., 195:93-96 (1991); and Palcic et al, Carbohydr. Res., 250:87-92 (1993)), and using an EL 340 biokinetics reader (BIOTEK Instruments; Winooski, Vt.).
Glucose standards at each of the various cosolvent concentrations were run parallel to each reaction so that any effect of the cosolvents on the glucose assay could be subtracted out.

GA from A. awamori [2] = target: T1, GA from A. awamori; experiment: Effect of cosolvent solution viscosity on kcat of GA (maltose hydrolysis); type: biochemical; conditions: maltose hydrolysis at 45° C.; for Effect of solution viscosity on kcat (in words): PEG200 viscosities up to 14 cp, PEG8000 up to 18 cp
Protocol: Kinetic assays were performed either at 45° C. or at 60° C., in 0.05M sodium acetate buffer (pH 4.5), using a substrate, i.e., maltose, concentration of 20 mM. The substrate concentration was sufficiently above the Km value so that the measured rate was directly proportional to kcat.
as §1
All buffers of various cosolvent concentrations were filtered before use. Viscosity and density measurements were performed using an Ostwald Capillary Viscometer at 45° C. The densities of the various buffer solutions were obtained by replicate weighing of one milliliter volumes of buffer.
As discussed above, if product release is the rate-limiting step in the GA mechanism, there should be a dependence of the kcat value on solution viscosity. If a conformational change associated with the product release is limiting the reaction rate, the relationship between kcat and viscosity, μ, should be μ^-δ (Demchenko et al, supra). This relationship is based on the Kramers' theory (Kramers, supra) which postulates that diffusional motion in a random field controls the rate at which the enzyme complex will pass over the activation energy barrier. […] This relationship is based on the theory that the dissociating product must have a certain minimal kinetic energy to escape some characteristic volume in the enzyme active site. Once the product has exited from the characteristic volume, the product has a very low probability of reassociating. If the former relationship is valid, plots of ln(kcat) vs ln(μ) for the various cosolvents should be linear with a slope of -δ, whereas if the latter is true plots of ln(kcat) vs (μ)^2 should be linear with a slope corresponding to -γ.

SMILES | Maximum percent increase in kcat over control value without cosolvent (GA from A. awamori [1]) | Corresponding cosolvent concentration at maximum percent increase in kcat (GA from A. awamori [1]) | Effect of cosolvent on kcat (in words) (GA from A. awamori [1]; FIGS. 1A-1G) | kcat (GA from A. awamori [1]) | Solution viscosity at which GA activity starts to decrease significantly (GA from A. awamori [2]) | Effect of solution viscosity on kcat (in words) (GA from A. awamori [2]) | Cosolvent concentration of peak (largest) increase in kcat (GA from A. awamori [1]) | Slope of plot of ln(kcat) vs (μ)^2 (GA from A. awamori [2]; FIGS. 4A-4G)
OCC(O)CO [Glycerol, glycerol, reference compound] | 11% | 1.0% | only a minor increase in kcat | 10.4 s⁻¹ | around 3.5 cp | substantially decreased kcat | – | –
OCCO [EG, ethylene glycol] | 32% | 50% | – | 12.4 s⁻¹ | around 3.5 cp | substantially decreased kcat | around 50 % (w/v) | -0.06
